Data: patent US20160355465A1, “NOVEL MODIFIED CURCUMINS AND THEIR USES” (THE RESEARCH FOUNDATION OF STATE UNIVERSITY OF NEW YORK, priority 2011, published 2016)
“Also recorded” adds a separate entry of the source.

Experiments:
MMP-9 [1] = molecular target: MMP-9 (Homo sapiens, UniProt P14780); experiment: fluorimetric assay of MMP activity; type: biochemical; details: synthetic fluorescent peptide substrate Mca-Lys-Pro-Leu-Gly-Leu-Dpa-Ala-Arg-NH2
MMP-3 = MMP-3 (Homo sapiens, UniProt P08254); experiment: fluorimetric assay of MMP activity; type: biochemical; details: synthetic fluorescent peptide substrate Mca-Lys-Pro-Leu-Gly-Leu-Dpa-Ala-Arg-NH2
MMP-7 = molecular target: T1, MMP-7 (Homo sapiens, UniProt P09237); experiment: fluorimetric assay of MMP activity; type: biochemical; details: synthetic fluorescent peptide substrate Mca-Lys-Pro-Leu-Gly-Leu-Dpa-Ala-Arg-NH2
T1 sequence (P09237 95-267): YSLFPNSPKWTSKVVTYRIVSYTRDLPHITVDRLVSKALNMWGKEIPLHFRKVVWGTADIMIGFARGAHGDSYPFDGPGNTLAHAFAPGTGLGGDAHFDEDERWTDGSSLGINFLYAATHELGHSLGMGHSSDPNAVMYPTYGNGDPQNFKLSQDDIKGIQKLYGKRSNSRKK

MMP-12 = MMP-12 (Homo sapiens, UniProt P39900); experiment: fluorimetric assay of MMP activity; type: biochemical; details: synthetic fluorescent peptide substrate Mca-Lys-Pro-Leu-Gly-Leu-Dpa-Ala-Arg-NH2
MMP-14 = MMP-14 (Homo sapiens, UniProt P50281); experiment: fluorimetric assay of MMP activity; type: biochemical; details: synthetic fluorescent peptide substrate Mca-Lys-Pro-Leu-Gly-Leu-Dpa-Ala-Arg-NH2
[2] = system: MMPs 1, 2, 3, 7, 8, 9, 12, 13 and 14; experiment: activity against a battery of MMPs (summary in words); type: biochemical, human
[3] = toxicity / tolerability in diabetic rats; type: in vivo
Experimental: The following five experimental groups (n=3 rats per group) were established: Non-diabetic control rats (NDC) treated by daily application of white petrolatum jelly (“vehicle”) for 7 days, diabetic rats (D group) treated daily with vehicle alone; diabetics treated by daily topical application of either a 1% (D+1%) or a 3% (D+3%) suspension of Compound 4 in the vehicle; and diabetics treated systemically by daily oral intubation of a 1 ml suspension of Compound 4 (in carboxymethylcellulose) at a dose of 30 mg/kg over the 7-day treatment protocol (D+30 mg/kg). At the end of this time period, the circular wounds were clinically assessed by measuring diameter of the wound in millimeters, blood samples were collected, the rats were sacrificed, and skin samples collected for histological/histochemical, and biochemical assessment as described below. • 1) On day 7 after inducing wound healing, the animals were anesthetized and blood samples collected for blood glucose (one Touch Ultra Glucometer; Johnson & Johnson, New Brunswick, N.J.) and Hemoglobin A1c (A1c Now+; Bayer Health Care, Sunnyvale, Calif.) measurements. • 2) Photographs were taken for clinical observations to assess wound closure. The % reduction of the wound surface was calculated by measuring the diameter (in millimeters) of each wound before and after the treatment protocol. • 3) Wound tissues on day 7 were excised from 3 sites per rat and pooled for biochemical analysis. […] The supernates were then dialyzed against the Tris-HCl, NaCl, CaCl2 buffer, and the proteinases partially purified by ammonium sulfate precipitation and examined for levels of MMP-2 (72 kD gelatinse) and MMP-9 (92 kD gelatinase) by gelatin zymography using denatured type I collagen (gelatin) as the substrate (6). • 4) The remaining wounds were assessed histologically & histochemically by Dr. Steve McClain (McClain Labs, Smithtown, N.Y.) as follows: Biopsies of each wound site were taken and included both the wound tissue and surrounding non-wounded tissue. […]

[4] = system: MMP-2 (72 kDa gelatinase); experiment: gelatin zymography of skin wound extracts; type: in vivo, rat; details: diabetic rats, 1% topical, day 7
Experimental: (§1) The following five experimental groups (n=3 rats per group) were established: Non-diabetic control rats (NDC) treated by daily application of white petrolatum jelly (“vehicle”) for 7 days, diabetic rats (D group) treated daily with vehicle alone; diabetics treated by daily topical application of either a 1% (D+1%) or a 3% (D+3%) suspension of Compound 4 in the vehicle; and diabetics treated systemically by daily oral intubation of a 1 ml suspension of Compound 4 (in carboxymethylcellulose) at a dose of 30 mg/kg over the 7-day treatment protocol (D+30 mg/kg). At the end of this time period, the circular wounds were clinically assessed by measuring diameter of the wound in millimeters, blood samples were collected, the rats were sacrificed, and skin samples collected for histological/histochemical, and biochemical assessment as described below. • 1) On day 7 after inducing wound healing, the animals were anesthetized and blood samples collected for blood glucose (one Touch Ultra Glucometer; Johnson & Johnson, New Brunswick, N.J.) and Hemoglobin A1c (A1c Now+; Bayer Health Care, Sunnyvale, Calif.) measurements. • 2) Photographs were taken for clinical observations to assess wound closure. […]

[5] = system: MMP-9 (92 kDa gelatinase); experiment: gelatin zymography of skin wound extracts; type: in vivo, rat; details: diabetic rats, all three treatments (1%, 3% topical, oral 30 mg/kg), day 7
Experimental: as §1

IL-1β = experiment: cytokine production by peritoneal macrophages of orally treated diabetic rats in culture; type: in vivo, rat; details: oral 30 mg/kg daily, 21 days, culture with or without P. gingivalis LPS
Experimental: (§2) Adult male Sprague-Dawley rats (body weight 300-350 g) were injected through the tail vein with either 0.9% saline (non-diabetic control) or with the same solution containing streptozotocin (70 mg/kg body weight) to induce diabetes. Non-diabetic rats served as normal controls. The diabetic rats were distributed into 2 experimental groups (3 rats per group). Urine glucose levels were measured weekly with Tes-Tape (Eli Lilly Inc.). One group of rats was treated by oral gavage of Compound 4 (30 mg/kg body weight) daily for 21 days; the Compound 4 was suspended in 2% carboxymethyl cellulose and polytron/homogenized. The normal & diabetic vehicle-treated (control) groups were oral gavaged with vehicle alone daily.
(§3) Rat peritoneal macrophages were harvested with 10 ml RPMI 4 days after intraperitoneal injection of 10 ml of thioglycolate (3% wt/vol). Macrophages were then purified by density gradient centrifugation (lymphoprep) and cell numbers were counted in a hemocytometer. The cells were then tested in a cell migration assay (Cell BioLabs, Inc, CytoSelect 96-well with 5 um fluorometric format) using conditioned medium containing inflammatory mediators including MCP-1 from LPS-macrophages as a chemoattractant. The macrophages from different groups of rats were also plated onto 24 well-plates with and without p.g.LPS challenge for 24 hours in 37° C., 5% CO2. […]

IL-6 = experiment: as above; type: in vivo, rat; details: oral 30 mg/kg daily, 21 days, culture with or without P. gingivalis LPS
Experimental: as §2, §3

MMP-9 [6] = experiment: MMP-9 in conditioned media of peritoneal macrophages, gelatin zymography; type: in vivo, rat; details: diabetic rats, oral 30 mg/kg daily, 21 days; no LPS
Experimental: as §2, §3

peritoneal macrophages = experiment: cell migration (chemotaxis) assay of peritoneal macrophages; type: in vivo, rat; details: diabetic rats, oral 30 mg/kg daily, 21 days
Experimental: as §2, §3

[7] = blood glucose of the rats of the collagen experiment; type: in vivo, rat; details: diabetic rats

Chain of MMP-12 (P39900 106-470): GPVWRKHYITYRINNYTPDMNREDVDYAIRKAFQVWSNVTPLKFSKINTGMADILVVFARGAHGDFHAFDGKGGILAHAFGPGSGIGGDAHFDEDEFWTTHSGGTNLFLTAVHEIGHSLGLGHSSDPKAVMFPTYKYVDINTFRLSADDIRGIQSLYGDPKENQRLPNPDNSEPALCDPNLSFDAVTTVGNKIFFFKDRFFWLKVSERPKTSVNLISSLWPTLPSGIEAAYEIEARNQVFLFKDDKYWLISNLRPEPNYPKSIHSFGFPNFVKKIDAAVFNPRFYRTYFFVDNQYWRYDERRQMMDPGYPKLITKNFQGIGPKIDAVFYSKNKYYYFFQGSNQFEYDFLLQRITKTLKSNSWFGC
Chain of MMP-9 (Homo sapiens, UniProt P14780) (P14780 94-707): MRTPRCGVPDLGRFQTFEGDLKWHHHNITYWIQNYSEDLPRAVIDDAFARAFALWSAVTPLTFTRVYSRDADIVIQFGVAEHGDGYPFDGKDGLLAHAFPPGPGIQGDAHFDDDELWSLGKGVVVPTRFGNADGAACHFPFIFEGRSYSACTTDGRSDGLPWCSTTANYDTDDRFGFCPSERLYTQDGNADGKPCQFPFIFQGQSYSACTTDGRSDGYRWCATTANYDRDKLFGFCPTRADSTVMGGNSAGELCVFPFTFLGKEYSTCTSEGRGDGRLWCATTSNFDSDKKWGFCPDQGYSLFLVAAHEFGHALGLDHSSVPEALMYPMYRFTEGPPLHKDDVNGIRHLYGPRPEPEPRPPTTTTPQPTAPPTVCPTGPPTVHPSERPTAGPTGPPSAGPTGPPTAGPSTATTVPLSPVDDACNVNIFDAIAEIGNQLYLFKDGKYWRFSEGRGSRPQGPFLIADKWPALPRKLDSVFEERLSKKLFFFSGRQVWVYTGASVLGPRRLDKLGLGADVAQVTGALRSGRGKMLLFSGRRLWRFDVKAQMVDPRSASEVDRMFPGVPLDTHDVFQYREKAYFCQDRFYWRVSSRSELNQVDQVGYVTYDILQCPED
Chain of MMP-3 (P08254 100-477): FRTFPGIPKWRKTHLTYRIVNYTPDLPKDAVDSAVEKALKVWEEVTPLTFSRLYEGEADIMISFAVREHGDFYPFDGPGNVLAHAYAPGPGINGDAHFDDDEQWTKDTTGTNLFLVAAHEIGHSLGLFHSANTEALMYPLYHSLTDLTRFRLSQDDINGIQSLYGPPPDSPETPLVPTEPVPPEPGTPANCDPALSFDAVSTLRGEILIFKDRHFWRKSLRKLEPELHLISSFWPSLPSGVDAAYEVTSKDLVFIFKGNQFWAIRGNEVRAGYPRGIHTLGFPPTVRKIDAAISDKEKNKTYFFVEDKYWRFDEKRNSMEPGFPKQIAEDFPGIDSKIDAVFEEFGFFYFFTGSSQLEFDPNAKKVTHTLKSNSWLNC

O=C(/C=C/c1ccc(O)cc1)C(C(=O)/C=C/c1ccc(O)cc1)C(=O)Nc1ccccc1 [Compound 4, 1,7-Bis(4-hydroxyphenyl)-4-N-phenylaminocarbonylhepta-1E, 6E-dien-3,5-dione]
IC50 (MMP-9 [1]): 8 ± 0.6 µM | IC50 (MMP-3): 2.9 ± 0.4 µM | IC50 (MMP-7): 5 ± 0.7 µM | IC50 (MMP-12): 2 ± 0.4 µM | IC50 (MMP-14): 15.3 ± 3.1 µM | anti-MMP activity (in words) [2]: highly active | toxic effects ([3]; 30 mg/kg body weight, diabetic rats): virtually no toxic effects | tolerability ([3]; topical (e.g. 1%) or systemic administration): well tolerated; also recorded: well tolerated and not toxic | MMP-2 in skin wounds [4]: does not suppress, and perhaps even enhances | level of pro-MMP-9 and activated MMP-9 in skin wounds [5]: attenuated this diabetic effect | IL-1β production by peritoneal macrophages (IL-1β): decreased excessive inflammatory cytokine | IL-6 production by peritoneal macrophages (IL-6): decreased excessive inflammatory cytokine | MMP-9 levels in peritoneal macrophages (MMP-9 [6]): decreased | macrophage chemotactic activity (peritoneal macrophages): counteracted the suppression of macrophage chemotactic activity | Blood Glucose ([7]; 0.25% topical): 538 mg/dL | Blood Glucose ([7]; 1% topical): 545 mg/dL
